Experimental data as given in patent US20240217969A1, “SUBSTITUTED PYRROLE CARBOXAMIDES, PROCESS FOR THEIR PREPARATION AND THEIR USE AS KINASE INHIBITORS” (priority 2021, published 2024).

Legend:
Cdc7 = Cdc7 (Homo sapiens, UniProt O00311); test: Cdc7 biochemical assay, ADPGlo assay format
Experimental: The biochemical activity of compounds was determined by incubation with specific enzymes and substrate, followed by quantification of the ADP product. Compounds were 4-fold serially diluted from 10 to 0.0006 uM; in the case of the pre-incubation step, the enzyme is added to the inhibitor solution and the mixture is left to incubate for 30 minutes at room temperature (r.t.). The reaction started with the addition of the substrate and the ATP, when the enzyme was already present in the preincubation step, or substrate, ATP and enzyme when the preincubation step was not present. The concentrations of ATP, substrate and reaction buffer are described above. The assays were run in a robotized format on 384-well plates. […] At the end of the incubation time, an equal volume of ADPGlo Reagent 1 (Promega) was added to stop the reaction and to remove all unreacted ATP. After 60 minutes, an equal volume of ADPGlo Reagent 2 (Promega) was added to convert ADP in ATP and then ATP in light by luciferase reaction.
y=bottom+(top−bottom)/(1+10^((log IC50−x)*slope))
where x is the logarithm of the inhibitor concentration, y is the response; y starts at bottom and goes to top with a sigmoid shape.

[1] = target: T1, aldehyde oxidases (human liver cytosol) (Homo sapiens, UniProt Q06278); type: in vitro ADME; settings: human liver cytosol 1 mg/mL, 1 μM compound; for HLC % remaining (1 h incub.): 60 min incubation; for HLC % remaining (1 h incub.) / HLC T½ min: pH 7.4, 37° C.; for IntCl (Intrinsic Clearance): half-life approach
T1 construct: added to human liver cytosol (1 mg/mL protein content); from tissue; host or cells: human liver cytosol
Experimental: The aldehyde oxidases involvement in the metabolism of the test item was determined by comparison of the intrinsic clearance values in the presence and absence of aldehyde oxidases inhibitor hydralazine hydrochloride. The purpose of the study was to evaluate the in-vitro intrinsic clearance, the metabolic stability towards aldehyde oxidases (AO) activity and the metabolism of the test item in human liver cytosol. The intrinsic clearance was determined using the half-life approach, by measuring the substrate disappearance along 60 minutes incubation with human liver cytosol. Incubations were performed at the concentration of 1 μM. […] HPLC-MS/MS was used for the detection of the compound left over during the incubation. For intrinsic clearance determination samples were analyzed by high performance liquid chromatography (HPLC) on-line with mass spectrometry (MS) equipment. For the determination of aldehyde oxidases activity (i.e. positive control) of cytosol, phthalazine was incubated with human liver cytosol in presence and absence of the aldehyde oxidases inhibitor. On the day of the incubation, the compound was dissolved in DMSO at the concentration of 10 mM. Aliquots of this solution were added to the test system to a final concentration of […]. The percentage of DMSO in the final incubates was […]. Aliquots of the test item were added to human liver cytosol (1 mg/mL protein content) in Dulbecco's buffer, pH 7.4 at 37° C., to reach final concentration of 1 μM. Incubations were performed in a 48-well plate, under shaking. At 0, 5, 10, 20, 30 and 60 minutes incubation, 50 μL aliquots of the incubate were sampled, poured in 80 μL of ice-cold acetonitrile and 20 μL of 1 μM warfarin in acetonitrile (injection control) and centrifuged at 2500 rpm for 20 minutes. The supernatant was immediately analysed by LC-MS/MS.
The test item was incubated in parallel, in duplicate, at the concentration of 1 μM in Dulbecco's buffer, pH 7.4 for 60 min at 37° C. in the presence of 10 μM hydralazine hydrochloride (aldehyde oxidases inhibitor).
The chemical stability of the test item was checked in parallel by incubating the test item in single at the concentration of 1 μM in Dulbecco's buffer, pH 7.4 for 60 min at 37° C. (negative control).
The intrinsic clearance (CLint) was calculated using the half-life approach. Half-life and CLint were determined from the concentration (area counts) remaining at the different sampling points using the LC-MS/MS method. By plotting the natural logarithmic area of the compound remaining against the time, the slope was calculated by linear regression analysis and converted into the half-life (t½) and CLint expressed as μL/min/mg protein according to the following formulae: […]

T1 sequence (Q06278 whole entry): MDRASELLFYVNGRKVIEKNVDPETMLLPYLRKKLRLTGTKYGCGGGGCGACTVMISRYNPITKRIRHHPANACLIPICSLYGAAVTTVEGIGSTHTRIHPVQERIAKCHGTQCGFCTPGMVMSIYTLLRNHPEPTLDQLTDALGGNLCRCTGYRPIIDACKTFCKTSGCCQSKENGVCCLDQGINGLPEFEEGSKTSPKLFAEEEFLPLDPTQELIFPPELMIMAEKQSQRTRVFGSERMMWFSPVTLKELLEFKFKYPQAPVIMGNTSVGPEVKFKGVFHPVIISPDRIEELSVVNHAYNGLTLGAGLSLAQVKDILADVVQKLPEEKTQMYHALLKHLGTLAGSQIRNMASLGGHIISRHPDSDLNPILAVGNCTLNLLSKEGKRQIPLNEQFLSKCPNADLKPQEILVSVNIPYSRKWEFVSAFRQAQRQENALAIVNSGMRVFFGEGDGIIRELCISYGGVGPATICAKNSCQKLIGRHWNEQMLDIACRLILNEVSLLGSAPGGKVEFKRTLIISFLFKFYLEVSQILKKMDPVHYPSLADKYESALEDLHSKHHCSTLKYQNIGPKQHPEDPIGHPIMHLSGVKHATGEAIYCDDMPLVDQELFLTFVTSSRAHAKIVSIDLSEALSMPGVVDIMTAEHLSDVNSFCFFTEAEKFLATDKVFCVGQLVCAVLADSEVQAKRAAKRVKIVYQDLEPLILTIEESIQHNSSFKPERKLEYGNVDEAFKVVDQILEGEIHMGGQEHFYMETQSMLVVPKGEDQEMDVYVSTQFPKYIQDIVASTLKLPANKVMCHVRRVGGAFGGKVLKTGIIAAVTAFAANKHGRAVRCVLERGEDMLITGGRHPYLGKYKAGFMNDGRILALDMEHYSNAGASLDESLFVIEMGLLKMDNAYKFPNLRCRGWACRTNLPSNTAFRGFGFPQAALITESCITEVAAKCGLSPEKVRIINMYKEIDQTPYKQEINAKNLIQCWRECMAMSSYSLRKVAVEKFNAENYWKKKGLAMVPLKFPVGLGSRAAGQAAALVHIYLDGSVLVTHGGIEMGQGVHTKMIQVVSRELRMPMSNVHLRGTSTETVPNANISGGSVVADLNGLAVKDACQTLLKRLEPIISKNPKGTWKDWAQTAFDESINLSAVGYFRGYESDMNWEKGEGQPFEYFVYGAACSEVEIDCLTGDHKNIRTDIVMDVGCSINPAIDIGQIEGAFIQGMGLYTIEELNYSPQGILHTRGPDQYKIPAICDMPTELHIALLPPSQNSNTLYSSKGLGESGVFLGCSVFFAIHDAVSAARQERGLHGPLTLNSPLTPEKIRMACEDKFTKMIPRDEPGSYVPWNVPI
Sequence of Cdc7 (O00311 whole entry): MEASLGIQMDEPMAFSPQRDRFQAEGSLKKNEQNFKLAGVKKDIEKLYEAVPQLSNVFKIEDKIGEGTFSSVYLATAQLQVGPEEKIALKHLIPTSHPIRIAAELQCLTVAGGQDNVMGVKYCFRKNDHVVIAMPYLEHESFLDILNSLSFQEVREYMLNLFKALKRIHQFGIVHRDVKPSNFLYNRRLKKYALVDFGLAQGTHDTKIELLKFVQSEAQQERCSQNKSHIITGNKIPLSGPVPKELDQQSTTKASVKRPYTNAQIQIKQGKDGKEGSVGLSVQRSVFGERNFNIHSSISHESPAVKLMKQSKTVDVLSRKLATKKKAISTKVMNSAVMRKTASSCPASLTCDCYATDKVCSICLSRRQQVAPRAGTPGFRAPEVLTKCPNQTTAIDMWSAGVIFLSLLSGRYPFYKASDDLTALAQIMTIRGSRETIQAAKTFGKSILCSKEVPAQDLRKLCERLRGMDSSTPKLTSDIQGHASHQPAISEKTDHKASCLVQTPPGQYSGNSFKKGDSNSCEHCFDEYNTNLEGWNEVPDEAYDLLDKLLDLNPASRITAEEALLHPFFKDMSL
Sequence of Cdc7 (Q9UBU7 whole entry partner): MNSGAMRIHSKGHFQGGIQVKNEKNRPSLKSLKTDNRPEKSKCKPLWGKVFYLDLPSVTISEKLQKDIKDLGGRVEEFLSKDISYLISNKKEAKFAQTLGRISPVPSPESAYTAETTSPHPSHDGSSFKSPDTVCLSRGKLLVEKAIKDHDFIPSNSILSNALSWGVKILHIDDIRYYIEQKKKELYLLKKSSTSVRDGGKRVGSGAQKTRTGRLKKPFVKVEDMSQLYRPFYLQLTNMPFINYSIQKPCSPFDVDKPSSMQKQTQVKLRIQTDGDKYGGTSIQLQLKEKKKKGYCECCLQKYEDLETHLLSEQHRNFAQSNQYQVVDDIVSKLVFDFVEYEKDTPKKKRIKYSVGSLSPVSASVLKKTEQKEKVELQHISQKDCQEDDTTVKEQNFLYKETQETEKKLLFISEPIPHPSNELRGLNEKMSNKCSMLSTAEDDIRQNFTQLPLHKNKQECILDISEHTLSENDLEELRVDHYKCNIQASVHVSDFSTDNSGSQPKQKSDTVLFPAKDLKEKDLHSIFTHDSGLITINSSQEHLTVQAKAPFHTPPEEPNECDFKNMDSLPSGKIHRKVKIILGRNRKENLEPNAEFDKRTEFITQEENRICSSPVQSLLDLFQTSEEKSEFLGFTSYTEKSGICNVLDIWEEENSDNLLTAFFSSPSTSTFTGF

Compound | IC50 (Cdc7) | HLC % remaining (1 h incub.) [1] | IntCl (Intrinsic Clearance) [1] | HLC T½ min [1]
NC(=O)c1cc(-c2cn[nH]c2)[nH]c1-c1ccc(Cl)cc1Cl [compound 43, 2-(2,4-dichlorophenyl)-5-(1H-pyrazol-4-yl)-1H-pyrrole-3-carboxamide] | 13 nM | 100% | 2.9 μL/min/mg protein | 3.98 h
COc1cccc(-c2[nH]c(-c3ccnc4[nH]ccc34)cc2C(N)=O)c1F [comp 12, 2-(2-fluoro-3-methoxyphenyl)-5-(1H-pyrrolo[2,3-b]pyridin-4-yl)-1H-pyrrole-3-carboxamide] | 4 nM | 97% | 2.9 μL/min/mg protein | 3.98 h
NC(=O)c1cc(-c2ccnc3[nH]ccc23)[nH]c1-c1ccc(Cl)cc1Cl [compound 46, 2-(2,4-dichlorophenyl)-5-(1H-pyrrolo[2,3-b]pyridin-4-yl)-1H-pyrrole-3-carboxamide] | 1 nM | 100% | 2.9 μL/min/mg protein | 3.98 h
Cc1ccc(-c2[nH]c(-c3cn[nH]c3)cc2C(N)=O)c(F)c1 [compound 49, 2-(2-fluoro-4-methylphenyl)-5-(1H-pyrazol-4-yl)-1H-pyrrole-3-carboxamide] | 18 nM | 100% | 2.9 μL/min/mg protein | 3.98 h
Cc1cccc(-c2[nH]c(-c3ccnc4[nH]ccc34)cc2C(N)=O)c1F [comp 14, 2-(2-fluoro-3-methylphenyl)-5-(1H-pyrrolo[2,3-b]pyridin-4-yl)-1H-pyrrole-3-carboxamide] | 10 nM | 100% | 2.9 μL/min/mg protein | 3.98 h
NC(=O)c1cc(-c2ccnc3[nH]ccc23)[nH]c1-c1cccc(Cl)c1F [comp 1, 2-(3-chloro-2-fluorophenyl)-5-(1H-pyrrolo[2,3-b]pyridin-4-yl)-1H-pyrrole-3-carboxamide] | 4 nM | 100% | 2.9 μL/min/mg protein | 3.98 h
NC(=O)c1cc(-c2ccnc3[nH]ccc23)[nH]c1-c1ccc(C(F)(F)F)cc1Cl [comp 5, 2-[2-chloro-4-(trifluoromethyl)phenyl]-5-(1H-pyrrolo[2,3-b]pyridin-4-yl)-1H-pyrrole-3-carboxamide] | 1 nM | 100% | 2.9 μL/min/mg protein | 3.98 h
Cc1n[nH]cc1-c1cc(C(N)=O)c(-c2ccc(Cl)cc2Cl)[nH]1 [compound 44, 2-(2,4-dichlorophenyl)-5-(3-methyl-1H-pyrazol-4-yl)-1H-pyrrole-3-carboxamide] | 48 nM | 100% | 2.9 μL/min/mg protein | 3.98 h
NC(=O)c1cc(-c2ccnc3[nH]ccc23)[nH]c1-c1ccc(F)cc1Cl [comp 3, 2-(2-chloro-4-fluorophenyl)-5-(1H-pyrrolo[2,3-b]pyridin-4-yl)-1H-pyrrole-3-carboxamide] | 1 nM | 97% | 2.9 μL/min/mg protein | 3.98 h
NC(=O)c1cc(-c2c[nH]nc2C(F)(F)F)[nH]c1-c1ccc(Cl)cc1Cl [compound 48, 2-(2,4-dichlorophenyl)-5-[3-(trifluoromethyl)-1H-pyrazol-4-yl]-1H-pyrrole-3-carboxamide] | 188 nM | 100% | 2.9 μL/min/mg protein | 3.98 h
Cc1ccc(-c2[nH]c(-c3ccnc4[nH]ccc34)cc2C(N)=O)c(F)c1F [comp 10, 2-(2,3-difluoro-4-methylphenyl)-5-(1H-pyrrolo[2,3-b]pyridin-4-yl)-1H-pyrrole-3-carboxamide] | 3 nM | 95% | 2.9 μL/min/mg protein | 3.98 h
Cc1c(-c2[nH]c(-c3ccnc4[nH]ccc34)cc2C(N)=O)cccc1C(F)(F)F [comp 15, 2-[2-methyl-3-(trifluoromethyl)phenyl]-5-(1H-pyrrolo[2,3-b]pyridin-4-yl)-1H-pyrrole-3-carboxamide] | 6 nM | 100% | 2.9 μL/min/mg protein | 3.98 h
Cc1ccc(-c2[nH]c(-c3ccnc4[nH]ccc34)cc2C(N)=O)c(C(F)(F)F)c1 [comp 8, 2-[4-methyl-2-(trifluoromethyl)phenyl]-5-(1H-pyrrolo[2,3-b]pyridin-4-yl)-1H-pyrrole-3-carboxamide] | 3 nM | 85% | 2.9 μL/min/mg protein | 3.98 h
NC(=O)c1cc(-c2cc(N)ncn2)[nH]c1-c1ccc(Cl)cc1Cl [compound 42, 5-(6-aminopyrimidin-4-yl)-2-(2,4-dichlorophenyl)-1H-pyrrole-3-carboxamide] | 90 nM | 100% | 2.9 μL/min/mg protein | 3.98 h
